# Laboratory results published in patent EP0617001B1, “Phenoxyphenylacetic acid derivatives” (Merck & Co., Inc., priority 1993, dated 1994).
# Structures can show the parent of a compound that is named as a salt.
# Legend:
# Anesthetized Male Dog [1] = assay: ET-1 induced changes in diastolic blood pressure (DBP) and intra-urethral pressure (IUP) in the anesthetized male dog; assay type: in vivo, mongrel dog; conditions: for % INHIBITION of ET-1 induced change in DBP, DEPRESSOR / % INHIBITION of ET-1 induced change in DBP, PRESSOR / % INHIBITION of ET-1 induced change in IUP, PRESSOR: 30 mg/kg intra-venous
# Description: Methodology for determining whether an ET-1 selective antagonist could inhibit the ET-1 mediated prostatic urethral contractions in a mongrel dog model:
# (§1) On separate days, two fasted male mongrel dogs (HRP, Inc.) weighing 11.0 and 12.4 kg, were anesthetized with Sodium Pentobarbital (Steris Laboratories, Inc.) at 35 mg/kg (i.v.) to effect, followed by 4 mg/kg/hr (i.v.) infusion. A cuffed endotracheal tube was inserted and each animal was ventilated with room air using a positive displacement large animal ventilator (Harvard Apparatus) at a rate of 18 breaths/minute and an average tidal volume of 18 ml/kg body weight. Body temperature was maintained with a heating pad and heat lamp using a temperature controller (YSI) and esophageal probe. Two catheters (PE 260) were placed in the aorta via the femoral arteries (one in each artery) for administration of endothelin or phenylephrine and for continuous direct monitoring of blood pressure and heart rate using a Statham blood pressure transducer (Spectramed) and a computer system (Modular Instruments, Inc.). Two other catheters (PE 260) were placed in the vena cava via the femoral veins (one catheter in each vein) for administration of pentobarbital and N-(4-iso-propylbenzenesulfonyl)-α-(4-carboxy-2-n-propylphenoxy)-3,4-methylenedioxyphenylacetamide dipotassium salt [Example 42]. A supra-pubic incision approximately one-half inch lateral to the penis was made to expose the ureters, urinary bladder, prostate, and urethra. The dome of the bladder was retracted to facilitate dissection of the ureters. The ureters were cannulated with PE 90 and tied off to the bladder. Umbilical tape was passed beneath the urethra at the bladder neck and another piece of tape was placed approximately 1-2 cm. distal to the prostate. The bladder dome was incised and a Micro-tip® catheter transducer (Millar Instruments, Inc.) was advanced into the urethra. The neck of the bladder was ligated with the umbilical tape to hold the transducer. The bladder incision was sutured wit 3-0 silk (purse string suture). The transducer was withdrawn until it was positioned in the prostatic urethra. The position of the Micro-tip® catheter was verified by gently squeezing the prostate and noting the large change in urethral pressure prior to ligating the distal urethra.
# (§2) Phenylephrine (PB) (10 µg/kg, intra-arterial) was administered and pressor effects on diastolic blood pressure (DBP) and intra-urethral pressure (IUP) were noted. When blood pressure returned to baseline, endothelin-1 (ET-1) (1 nmole/kg, intra-arterial) was administered. Changes in DBP and IUP were monitored for one hour and an ET-1 selective endothelin antagonist, such as the compound of Example 42, N-(4-iso-propylbenzene-sulfonyl)-α-(4-carboxy-2-n-propylphenoxy)-3,4-methylenedioxyphenyl-acetamide dipotassium salt (30 mg/kg, intra-venous) was administered. Ten to fifteen minutes later when blood pressure had stabilized, ET-1 was administered again, and inhibition of ET-1 induced effects were noted. PE was administered at the end of the experiment to verify specificity for ET-1 blockade. The dogs were euthanized with an overdose of pentobarbital followed by saturated KCl.
# (§3) All drugs were dissolved in isotonic saline solution.
# Anesthetized Male Dog [2] = assay: Phenylephrine (PE)-induced changes in DBP and IUP in the anesthetized male dog (specificity for ET-1 blockade); assay type: in vivo, mongrel dog
# Description: as §1, with “Two other catheters (PE 260) were placed in the vena cava via the femoral veins (one catheter in each vein) for administration of pentobarbital and N-(4-iso-propylbenzenesulfonyl)-α-(4-carboxy-2-n-propylphenoxy)-3,4-methylenedioxyphenylacetamide dipotassium salt [Example 42].” left out
# as §2, with “Changes in DBP and IUP were monitored for one hour and an ET-1 selective endothelin antagonist, such as the compound of Example 42, N-(4-iso-propylbenzene-sulfonyl)-α-(4-carboxy-2-n-propylphenoxy)-3,4-methylenedioxyphenyl-acetamide dipotassium salt (30 mg/kg, intra-venous) was administered.” left out
# as §3
# rat prostate = assay: In situ rat prostate: ET-1 induced contraction; assay type: in vivo, Sprague-Dawley rats; conditions: antagonist injected IA
# Description: Male Sprague-Dawley rats (Taconic Farms) weighing 300-400 grams were anesthetized with urethane (1.75 g/kg, ip), a tracheal cannula was inserted, and the femoral artery was cannulated. Core body temperature was maintained at 37 + 0.5 °C. A 4-5 cm midline abdominal incision was made to expose the bladder and prostate. The prostate was separated from the bladder and surrounding capsule by blunt dissection with a forcep. A length of surgical silk was gently secured around the anterior tips of the prostate lobes. A second length of surgical silk attached to an atraumatic needle was passed through and tied to the base of the prostate approximately 10-12 mm posterior to the first tie. The posterior ligature was secured to an anchor post whereas the anterior ligature was connected to a Grass FT03 transducer (Grass Instruments, Quincy, MA) and maintained at a tension of 1 g. Signals from the transducer were amplified and recorded on a polygraph (Hewlett-Packard 8805B amplifiers and 7758A recorder, Palo Alto, CA). After equilibrating for approximately 15 min, the rats were administered pretreatment drugs (atropine 1 mg/kg, (+) propranolol 1 mg/kg) 10 min apart through the intra-arterial (IA) cannula. […] The response of the prostate to FT-1 was quantified by measuring the change (Δ) from baseline tension to the peak of the response during the 5-minute period after the third FT-1 injection.
# [3] = ET-1 (i.a.) alone, 1 nmole/kg, MEAN, n=2 dogs
# [4] = ET-1 (i.a.) alone, 1 nmole/kg, dog HG FMHK
# [5] = ET-1 (i.a.) alone, 1 nmole/kg, dog HG FMJC
# [6] = ET-1 challenge after antagonist 30 mg/kg intra-venous, MEAN, n=2 dogs
# [7] = ET-1 challenge after antagonist 30 mg/kg intra-venous, dog HG FMHK
# [8] = ET-1 challenge after antagonist 30 mg/kg intra-venous, dog HG FMJC
# [9] = 30 mg/kg intra-venous, dog HG FMJC
# [10] = Phenylephrine alone, 10 µg/kg intra-arterial, dog HG FMJC
molecule,measurement,setting,value
Endothelin-1 [ET-1],CHANGE IN DBP (mmHg) DEPRESSOR,Anesthetized Male Dog [1]; [3],-13 mmHg
same,CHANGE IN DBP (mmHg) PRESSOR,Anesthetized Male Dog [1]; [3],26 mmHg
same,CHANGE IN IUP (mmHg) PRESSOR,Anesthetized Male Dog [1]; [3],15 mmHg
same,CHANGE IN DBP (mmHg) DEPRESSOR,Anesthetized Male Dog [1]; [4],-15 mmHg
same,CHANGE IN DBP (mmHg) PRESSOR,Anesthetized Male Dog [1]; [4],33 mmHg
same,CHANGE IN IUP (mmHg) PRESSOR,Anesthetized Male Dog [1]; [4],11 mmHg
same,CHANGE IN DBP (mmHg) DEPRESSOR,Anesthetized Male Dog [1]; [5],-10 mmHg
same,CHANGE IN DBP (mmHg) PRESSOR,Anesthetized Male Dog [1]; [5],19 mmHg
same,CHANGE IN IUP (mmHg) PRESSOR,Anesthetized Male Dog [1]; [5],18 mmHg
same,decrease in DBP,"Anesthetized Male Dog [1]; ET-1 alone, 1 nmole/kg intra-arterial, average of both dogs",13 mmHg
"CCCc1cc(C(=O)O)ccc1OC(C(=O)NS(=O)(=O)c1ccc(C(C)C)cc1)c1ccc2c(c1)OCO2 (stereo not drawn) [Example 42, N-(4-iso-propylbenzenesulfonyl)-α-(4-carboxy-2-n-propylphenoxy)-3,4-methylenedioxyphenylacetamide dipotassium salt]","% INHIBITION of ET-1 induced change in DBP, DEPRESSOR","Anesthetized Male Dog [1]; MEAN, n=2 dogs",69%
same,"% INHIBITION of ET-1 induced change in DBP, PRESSOR","Anesthetized Male Dog [1]; MEAN, n=2 dogs",76%
same,"% INHIBITION of ET-1 induced change in IUP, PRESSOR","Anesthetized Male Dog [1]; MEAN, n=2 dogs",93%
same,"% INHIBITION of ET-1 induced change in DBP, DEPRESSOR",Anesthetized Male Dog [1]; dog HG FMHK,67%
same,"% INHIBITION of ET-1 induced change in DBP, PRESSOR",Anesthetized Male Dog [1]; dog HG FMHK,94%
same,"% INHIBITION of ET-1 induced change in IUP, PRESSOR",Anesthetized Male Dog [1]; dog HG FMHK,91%
same,"% INHIBITION of ET-1 induced change in DBP, DEPRESSOR",Anesthetized Male Dog [1]; dog HG FMJC,70%
same,"% INHIBITION of ET-1 induced change in DBP, PRESSOR",Anesthetized Male Dog [1]; dog HG FMJC,58%
same,"% INHIBITION of ET-1 induced change in IUP, PRESSOR",Anesthetized Male Dog [1]; dog HG FMJC,94%
same,CHANGE IN DBP (mmHg) DEPRESSOR,Anesthetized Male Dog [1]; [6],-4 mmHg
same,CHANGE IN DBP (mmHg) PRESSOR,Anesthetized Male Dog [1]; [6],5 mmHg
same,CHANGE IN IUP (mmHg) PRESSOR,Anesthetized Male Dog [1]; [6],1 mmHg
same,CHANGE IN DBP (mmHg) DEPRESSOR,Anesthetized Male Dog [1]; [7],-5 mmHg
same,CHANGE IN DBP (mmHg) PRESSOR,Anesthetized Male Dog [1]; [7],2 mmHg
same,CHANGE IN IUP (mmHg) PRESSOR,Anesthetized Male Dog [1]; [7],1 mmHg
same,CHANGE IN DBP (mmHg) DEPRESSOR,Anesthetized Male Dog [1]; [8],-3 mmHg
same,CHANGE IN DBP (mmHg) PRESSOR,Anesthetized Male Dog [1]; [8],8 mmHg
same,CHANGE IN IUP (mmHg) PRESSOR,Anesthetized Male Dog [1]; [8],1 mmHg
same,hemodynamic and prostatic urethral responses to ET-1,Anesthetized Male Dog [1]; anesthetized dogs,specifically inhibited
same,"% Inhibition of Control, PE-induced INCREASE IN DBP",Anesthetized Male Dog [2]; [9],35%
same,"% Inhibition of Control, PE-induced INCREASE IN IUP",Anesthetized Male Dog [2]; [9],13%
same,Intra-arterial PE-induced increases in DBP and IUP after administration,Anesthetized Male Dog [2]; one dog studied,did not change significantly
same,inhibition of ET-1 to contract the prostate,rat prostate,specific inhibition
"CNC[C@H](O)c1cccc(O)c1 [Phenylephrine, reference compound]",INCREASE IN DBP (mmHg),Anesthetized Male Dog [2]; [10],17 mmHg
same,INCREASE IN IUP (mmHg),Anesthetized Male Dog [2]; [10],31 mmHg
